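Five compound concentrations were applied to cells in 96-well plates for 48 hours; endpoints were derived by simple linear interpolation of the resulting dose-response curve. GI50 is the concentration that inhibits growth by half.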 Active and inactive are the calls of the source. Cut-off read from the data, not from the text of the source: active = GI50 up to about 1.1 µM and inactive = higher.
Assays:
Test in all cases: NCI tumour cell line growth inhibition, 48 h
M14 = system: M14
KM12 = system: KM12
HOP-92 = system: HOP-92
HL-60 = system: HL-60
NCI-H522 = system: NCI-H522
SF-268 = system: SF-268
Malme-3M = system: Malme-3M
SK-MEL-28 = system: SK-MEL-28
HCC 2998 = system: HCC 2998
SK-OV-3 = system: SK-OV-3
TK-10 = system: TK-10
CAKI-1 = system: CAKI-1
SNB-19 = system: SNB-19
SNB-75 = system: SNB-75
SR = system: SR
RXF 393 = system: RXF 393
HCT-15 = system: HCT-15

| Structure (SMILES) | GI50 (M14) | GI50 (KM12) | GI50 (HOP-92) | GI50 (HL-60) | GI50 (NCI-H522) | GI50 (SF-268) | GI50 (Malme-3M) | GI50 (SK-MEL-28) | GI50 (HCC 2998) | GI50 (SK-OV-3) | GI50 (TK-10) | GI50 (CAKI-1) | GI50 (SNB-19) | GI50 (SNB-75) | GI50 (SR) | GI50 (RXF 393) | GI50 (HCT-15) |
| --- | --- | --- | --- | --- | --- | --- | --- | --- | --- | --- | --- | --- | --- | --- | --- | --- | --- |
| COc1nc(NC2OC(COC(C)=O)C(OC(C)=O)C(OC(C)=O)C2OC(C)=O)c(/N=C/C=N/c2c(NC3OC(COC(C)=O)C(OC(C)=O)C(OC(C)=O)C3OC(C)=O)nc(OC)[nH]c2=O)c(=O)[nH]1 (centres undefined) | > 100 µM (inactive) | > 100 µM (inactive) | > 100 µM (inactive) | > 100 µM (inactive) | > 100 µM (inactive) | > 100 µM (inactive) | > 100 µM (inactive) | > 100 µM (inactive) | > 100 µM (inactive) | > 100 µM (inactive) | > 100 µM (inactive) | > 100 µM (inactive) | > 100 µM (inactive) | > 100 µM (inactive) |  |  |  |
| Cc1cc(C)c(C(=O)O)c(SSc2cc(C)cc(C)c2C(=O)O)c1 |  | > 100 µM (inactive) | > 100 µM (inactive) | > 100 µM (inactive) | > 100 µM (inactive) | > 100 µM (inactive) | > 100 µM (inactive) | > 100 µM (inactive) |  | > 100 µM (inactive) | > 100 µM (inactive) | > 100 µM (inactive) | > 100 µM (inactive) |  | > 100 µM (inactive) | > 100 µM (inactive) |  |
| O=C(CC(=O)C(=O)Nc1ccccc1)CC(c1ccccc1)c1c(O)c2ccccc2oc1=O (centres undefined) | > 100 µM (inactive) | > 100 µM (inactive) | 23.4 µM (inactive) | > 100 µM (inactive) | > 100 µM (inactive) | > 100 µM (inactive) | > 100 µM (inactive) | > 100 µM (inactive) | > 100 µM (inactive) | > 100 µM (inactive) | > 100 µM (inactive) | > 100 µM (inactive) | > 100 µM (inactive) | > 100 µM (inactive) |  | > 100 µM (inactive) | > 100 µM |
| N#Cc1ccc(Sc2nc3ccccc3[nH]2)cc1 |  | > 100 µM (inactive) | > 100 µM (inactive) | 84.3 µM (inactive) | > 100 µM (inactive) | > 100 µM (inactive) | > 100 µM (inactive) | > 100 µM (inactive) |  | > 100 µM (inactive) | > 100 µM (inactive) | > 100 µM (inactive) | > 100 µM (inactive) |  | > 100 µM (inactive) | > 100 µM (inactive) |  |
| Cc1cc(C)nc(NS(=O)(=O)c2ccc(NC(=O)c3ccc(Cl)c4c(Nc5ccc(S(=O)(=O)Nc6cc(C)on6)cc5)c5ccccc5nc34)cc2)n1 | 18.8 µM (inactive) | 18.4 µM (inactive) | 16.3 µM (inactive) | 8.95 µM (inactive) | 16.1 µM (inactive) | 15 µM (inactive) | 20.9 µM (inactive) | 18.4 µM (inactive) | 18.7 µM (inactive) | 19.4 µM (inactive) | 18.3 µM (inactive) | 15.7 µM (inactive) | 17 µM (inactive) | > 10 µM (inactive) |  | 14.3 µM (inactive) |  |
| CSc1nc(SC)c2c(C#N)n[nH]c2n1 | > 100 µM (inactive) | > 100 µM (inactive) | 48.5 µM (inactive) |  | > 100 µM (inactive) | > 100 µM (inactive) | > 100 µM (inactive) | > 100 µM (inactive) | > 100 µM (inactive) | > 100 µM (inactive) | 49.4 µM (inactive) | > 100 µM (inactive) | > 100 µM (inactive) | 63.5 µM (inactive) | > 100 µM (inactive) | > 100 µM (inactive) | > 100 µM |
| CCN1c2ccccc2C(C(SC)S(=O)(=O)c2ccc(C)cc2)c2c1[nH]c(=O)n(C)c2=O (centres undefined) |  | > 100 µM (inactive) | > 100 µM (inactive) | 89.9 µM (inactive) | > 100 µM (inactive) | > 100 µM (inactive) | 88.1 µM (inactive) | > 100 µM (inactive) | > 100 µM (inactive) | > 100 µM (inactive) | > 100 µM (inactive) | > 100 µM (inactive) | > 100 µM (inactive) | 23.7 µM (inactive) |  |  | > 100 µM |
| CC(C)c1cc(C(C)C)c(S(=O)(=O)NN)c(C(C)C)c1 |  | > 100 µM (inactive) | > 100 µM (inactive) |  |  | > 100 µM (inactive) | > 100 µM (inactive) | > 100 µM (inactive) |  |  | > 100 µM (inactive) | > 100 µM (inactive) | > 100 µM (inactive) | > 100 µM (inactive) | > 100 µM (inactive) | > 100 µM (inactive) | > 100 µM |
| COc1ccc(/C=C2\N=C(c3ccccc3)N(Nc3nnc(NN4C(=O)/C(=C/c5ccc(OC)cc5)N=C4c4ccccc4)c4ccccc34)C2=O)cc1 | > 100 µM (inactive) | 17.2 µM (inactive) | > 100 µM (inactive) | 30 µM (inactive) | 35.1 µM (inactive) | 81.8 µM (inactive) |  | 71.1 µM (inactive) |  |  |  |  | > 100 µM (inactive) | 68.9 µM (inactive) | 26.6 µM (inactive) | > 100 µM (inactive) | 40.8 µM |
| O=C1C[C@@H]2[C@@H](C=CC23CC3)N1O | > 100 µM (inactive) | > 100 µM (inactive) |  | > 100 µM (inactive) | > 100 µM (inactive) | > 100 µM (inactive) | > 100 µM (inactive) | > 100 µM (inactive) | > 100 µM (inactive) | > 100 µM (inactive) | > 100 µM (inactive) | > 100 µM (inactive) | > 100 µM (inactive) | > 100 µM (inactive) |  | > 100 µM (inactive) |  |

— ChEMBL document CHEMBL1201862, “PubChem BioAssay data set” (2004)
